Assay results from patent publication US4236008A, “Fluorination of precursors for fluorine analogs of hydrocodone and oxycodone” (priority 1978, dated 1980).
Counter-ions that a name gives are not always drawn. Like-named read-outs stand apart in the source and are kept apart here.

What was measured:
[1] = tested on: morphine-induced Straub tail; assay: narcotic antagonist (anti-Straub tail) test, prevention of morphine-induced Straub tail; settings: Mus musculus, ip, 10 min, read-out: MOUSE ED50 VALUES: ANTI-STRAUB TAIL
Method: The narcotic antagonist (anti-Straub tail) property of the compounds is estimated by their ability to prevent morphine-induced Straub tail in mice. […] Prevention of the induction of a 90° Straub tail for minutes after the morphine sulfate injection is considered to indicate narcotic antagonism in the compound tested.

[2] = tested on: characteristic stretching or writhing syndrome induced by phenylquinone; assay: standard phenylquinone writhing test (PQW), analgesic activity, oral; settings: Mus musculus
Method: A test compound suspended in 1% methylcellulose was given orally to fasted (17-21 hours) female white mice, 5-20 animals per double blind test. Aqueous (0.01% phenyl-p-benzoquinone) phenylquinone was injected intraperitoneally at 24 minutes later using 0.20 ml per mouse. […] This is reported as PQW ED50 in the table below.

in vivo = settings: mouse, sc, 135 mg/kg
Method: A positive Straub tail response was recorded if a tail was erected for 3 seconds at any time within 25 minutes after dosing. A quantal Straub tail ED50 was calculated by the moving average method and is an indication of physical dependence.

[3] = read-out: MOUSE ED50 VALUES: PQW
[4] = 0.5 h, read-out: MOUSE ED50 VALUES: PQW (peak time value)

Row | Structure (SMILES) | ED50 [1] | ED50 [2, 3] | ED50 [2, 4] | ED50 (in vivo)
1 | COc1ccc2c3c1OC1C(F)C=CC4C(C2)N(C)CCC341 (stereo not drawn) [Ayer 3,137,701, reference compound] | > 162 mg/kg | 32 mg/kg |  | 
2 | COc1ccc2c3c1O[C@H]1[C@@H](O)C=C[C@H]4[C@@H](C2)N(C)CC[C@@]341 [Codeine PO4, reference compound] | > 140 mg/kg |  | 4.7 mg/kg | 
3 | COc1ccc2c3c1O[C@H]1C(F)=CC[C@H]4[C@@H](C2)N(C)CC[C@]314 [Compound 2, 17-Methyl-6,7-didehydro-4,5-epoxy-6-fluoro-3-methoxymorphinan Hydrochloride] | 94 mg/kg | 8 mg/kg |  | 26 mg/kg
4 | COc1ccc2c3c1O[C@H]1C(F)(F)CC[C@H]4[C@@H](C2)N(C)CC[C@@]341 [Compound 4, 17-Methyl-4,5-epoxy-6,6-difluoro-3-methoxymorphinan Hydrochloride] | > 81 mg/kg | 2.7 mg/kg |  | 10 mg/kg
5 | COc1ccc2c3c1O[C@H]1C(F)(F)CC[C@H]4[C@@H](C2)N(CC2CCC2)CC[C@@]341 [Compound 9, 17-Cyclobutylmethyl-4,5-epoxy-6,6-difluoro-3-methoxymorphinan Hydrochloride] | 4.1 mg/kg |  | 2.9 mg/kg | > 135 mg/kg
6 | COc1ccc2c3c1O[C@H]1C(F)(F)CC[C@@]4(F)[C@@H](C2)N(CC2CC2)CC[C@]314 [Compound 13, 17-Cyclopropylmethyl-4,5-epoxy-6,6,14β-trifluoro-3-methoxymorphinan H ydrochloride] |  | > 135 mg/kg |  | > 135 mg/kg
7 | COc1ccc2c3c1O[C@H]1C(F)(F)CC[C@@]4(F)[C@@H](C2)N(CC2CCC2)CC[C@]314.Cl [Compound 17, 17-Cyclobutylmethyl-4,5α-epoxy-6,6,14β-trifluoro-3-methoxymorphinan Hydrochloride] | 17 mg/kg | > 135 mg/kg |  | > 135 mg/kg
8 | COc1ccc2c3c1O[C@H]1C(F)(F)CC[C@H]4[C@@H](C2)N(CC2CC2)CC[C@@]341 [Compound 22, 17-Cyclopropylmethyl-4,5-epoxy-6,6-difluoro-3-methoxymorphinan] | 0.15 mg/kg |  | 2.2 mg/kg | > 54 mg/kg
9 | COc1ccc2c3c1O[C@H]1C(F)=CC[C@H]4[C@@H](C2)N(CC2CC2)CC[C@]314 [Compound 23, 17-Cyclopropylmethyl-6,7-didehydro-4,5-epoxy-6-fluoro-3-methoxymorphinan] | 0.21 mg/kg | 18 mg/kg |  | > 135 mg/kg
10 | COc1ccc2c3c1O[C@H]1C(F)(F)CC[C@@]4(O)[C@@H](C2)N(CC2CCC2)CC[C@]314.Cl [Compound 30, 17-Cyclobutylmethyl-4,5α-epoxy-6,6-difluoro-14β-hydroxy-3-methoxymorphinan Hydrochloride] | 10.8 mg/kg | 26 mg/kg |  | 
11 | CN1CC[C@]23c4c5ccc(O)c4O[C@H]2[C@@H](O)C=C[C@H]3[C@H]1C5 [Morphine SO4, reference compound] |  |  | 3 mg/kg | 
